Laboratory results published in ChEMBL document CHEMBL1201862, “PubChem BioAssay data set” (2004).
Values belong to the molecule of their own block, whether it stands above or below them. The source made the active and inactive calls.

What was measured:
Bcl-2-related protein A1 = target: T1, Bcl-2-related protein A1 (Mus musculus, UniProt Q07440); type: functional;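 further: confirmatory dose–response counterscreen on Bfl-1, used to check hits from a UBC13 polyubiquitin inhibitor campaign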
T1 sequence (Q07440 whole entry): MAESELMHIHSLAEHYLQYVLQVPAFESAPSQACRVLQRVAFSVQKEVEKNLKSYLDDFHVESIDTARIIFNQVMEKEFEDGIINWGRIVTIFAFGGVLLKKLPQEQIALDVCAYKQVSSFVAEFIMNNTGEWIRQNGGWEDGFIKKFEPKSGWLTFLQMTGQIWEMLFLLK

[1] = target: T2, Ubiquitin-conjugating enzyme E2 N (Homo sapiens, UniProt P61088); type: functional
T2 sequence (P61088 whole entry): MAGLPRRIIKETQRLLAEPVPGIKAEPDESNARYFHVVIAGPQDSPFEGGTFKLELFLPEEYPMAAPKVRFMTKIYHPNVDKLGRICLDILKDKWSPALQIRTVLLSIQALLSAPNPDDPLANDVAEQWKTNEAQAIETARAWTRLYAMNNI

[2] = target: T2, Ubiquitin-conjugating enzyme E2 N; type: functional; remark: listed apart in the source
[3] = target: T3, Polyadenylate-binding protein 1 (Homo sapiens, UniProt P11940); experiment: PABP1 MLLE–PAM2 interaction inhibitors, dose response, miRNA deadenylation inhibitor project, biochemical, fluorescence polarization, Cy5-PAM2 peptide, secondary (AID 602260); type: functional; conditions: read-out: IC50_Mean
[4] = Shn3 3'UTR reporter inhibitors, dose response, cell-based, Clone20 osteoblasts, firefly luciferase, cherry-picked (AID 624132); type: functional;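 further: firefly luciferase luminescence from reporter carrying the Shn3 3'UTR in osteoblasts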
[5] = target: T3, Polyadenylate-binding protein 1; experiment: PABP1 MLLE–PAM2 binding inhibitor potency, dose response, biochemical, fluorescence polarization, FITC-PAM2 peptide (AID 602259); type: functional; conditions: read-out: IC50_Mean
[6] = HepG2 cell cytotoxicity, dose response, cytotoxicity control for Shn3 inhibitor project, CellTiter-Glo, cherry-picked (AID 624134); type: functional, cell-based
[7] = control 3'UTR Renilla luciferase suppression, dose response, counter-screen for Shn3 inhibitor project, cell-based, Clone20-Shn3RL, cherry-picked (AID 624133); type: functional
HEK293 [8] = experiment: cells; conditions: Homo sapiens
HEK293 [9] = experiment: cells; conditions: Homo sapiens; remark: listed apart in the source
[10] = target: T4, Mannose-6-phosphate isomerase (Homo sapiens, UniProt P34949); experiment: PMI enzyme inhibitors, confirmation, biochemical, fluorescence intensity (AID 1535)
T4 sequence (P34949 whole entry): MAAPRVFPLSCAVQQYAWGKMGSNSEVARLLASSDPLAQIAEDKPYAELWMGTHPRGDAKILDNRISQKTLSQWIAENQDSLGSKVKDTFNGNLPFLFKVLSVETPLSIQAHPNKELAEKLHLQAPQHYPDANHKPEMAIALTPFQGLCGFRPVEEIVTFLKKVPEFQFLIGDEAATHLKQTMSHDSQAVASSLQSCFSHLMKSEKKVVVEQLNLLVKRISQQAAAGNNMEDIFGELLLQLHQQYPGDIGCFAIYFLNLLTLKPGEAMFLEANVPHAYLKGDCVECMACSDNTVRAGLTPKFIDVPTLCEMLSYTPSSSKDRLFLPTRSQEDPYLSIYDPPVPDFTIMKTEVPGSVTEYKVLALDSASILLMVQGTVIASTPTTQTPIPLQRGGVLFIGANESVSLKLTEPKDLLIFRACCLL

Phosphomannomutase 2 = target: T5, Phosphomannomutase 2 (Homo sapiens, UniProt O15305); experiment: Counter screen SAR assay for PMM2 inhibitors via a fluorescence intensity assay. [Related pubchem assays (depositor defined):AID1545, AID1574]
T5 sequence (O15305 whole entry): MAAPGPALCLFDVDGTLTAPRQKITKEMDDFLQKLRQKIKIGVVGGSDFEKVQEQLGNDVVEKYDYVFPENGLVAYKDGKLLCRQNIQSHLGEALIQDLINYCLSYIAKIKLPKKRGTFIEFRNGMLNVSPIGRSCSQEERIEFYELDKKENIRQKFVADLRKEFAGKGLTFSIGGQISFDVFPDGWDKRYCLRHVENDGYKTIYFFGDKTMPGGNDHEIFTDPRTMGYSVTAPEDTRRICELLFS

Cytochrome P450 2D6 = Cytochrome P450 2D6 (Homo sapiens, UniProt P10635);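 further: CYP2D6 member of a cytochrome P450 panel assay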
Cytochrome P450 1A2 = target: T6, Cytochrome P450 1A2 (Homo sapiens, UniProt P05177);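 further: PubChem cytochrome P450 panel assay, CYP1A2 panel member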
T6 sequence (P05177 whole entry): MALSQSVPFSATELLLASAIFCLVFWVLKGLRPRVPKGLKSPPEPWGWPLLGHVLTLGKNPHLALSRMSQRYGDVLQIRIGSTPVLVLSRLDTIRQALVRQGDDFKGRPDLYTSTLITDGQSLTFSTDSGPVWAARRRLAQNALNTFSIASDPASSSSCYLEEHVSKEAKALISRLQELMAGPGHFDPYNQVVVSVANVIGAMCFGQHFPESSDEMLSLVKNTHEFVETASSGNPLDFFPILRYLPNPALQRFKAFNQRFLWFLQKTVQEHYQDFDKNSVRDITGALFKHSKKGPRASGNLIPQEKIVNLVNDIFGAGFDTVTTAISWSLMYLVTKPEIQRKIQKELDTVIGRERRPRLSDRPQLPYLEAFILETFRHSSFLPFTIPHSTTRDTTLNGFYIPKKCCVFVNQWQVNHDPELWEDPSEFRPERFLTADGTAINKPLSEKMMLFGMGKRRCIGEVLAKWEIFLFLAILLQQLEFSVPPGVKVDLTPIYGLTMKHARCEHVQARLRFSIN

Cytochrome P450 2C9 = Cytochrome P450 2C9 (Homo sapiens, UniProt P11712)
[11] = target: T7, Microphthalmia-associated transcription factor (Homo sapiens, UniProt O75030); experiment: TRPM1 promoter luciferase signal decrease, dose response, MITF inhibitor project, cell-based, SK-MEL-5, cherry-picked, set 3 (AID 493073); type: functional
T7 sequence (O75030 whole entry): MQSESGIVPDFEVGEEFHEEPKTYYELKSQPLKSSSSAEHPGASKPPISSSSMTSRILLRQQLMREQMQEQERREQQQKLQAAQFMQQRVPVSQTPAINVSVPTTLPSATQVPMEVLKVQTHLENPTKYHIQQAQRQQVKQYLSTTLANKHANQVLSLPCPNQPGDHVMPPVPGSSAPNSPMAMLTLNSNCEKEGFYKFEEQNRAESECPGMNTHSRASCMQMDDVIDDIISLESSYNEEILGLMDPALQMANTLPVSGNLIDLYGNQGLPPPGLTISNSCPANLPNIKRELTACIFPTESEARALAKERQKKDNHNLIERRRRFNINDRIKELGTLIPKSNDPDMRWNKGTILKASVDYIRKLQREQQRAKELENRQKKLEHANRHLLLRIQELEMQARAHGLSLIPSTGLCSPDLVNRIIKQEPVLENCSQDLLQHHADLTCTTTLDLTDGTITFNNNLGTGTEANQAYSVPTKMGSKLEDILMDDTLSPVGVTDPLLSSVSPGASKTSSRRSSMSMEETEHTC

INS1 = experiment: beta cell apoptosis inhibitors, cytokine rescue, dose response, luminescence, retest (AID 449756); type: functional, cell-based; conditions: Rattus norvegicus;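 further: cell death triggered by IL-1 beta plus TNF-alpha plus IFN-gamma mixture; protective hits raise ATP signal compared with cytokine alone wells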
A-375 = experiment: A375 melanoma cell viability reduction, dose response, counter-screen for MITF modulator project, cherry-pick samples, set 2 (AID 540335); type: functional, cell-based; conditions: Homo sapiens
[12] = inhibitors of PGC1a acetylation in cells, dose response, cell-based, cherry-picked samples (AID 720514); type: functional;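 further: potency may reflect raised or lowered acetylation signal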

T3 sequence (P11940 whole entry): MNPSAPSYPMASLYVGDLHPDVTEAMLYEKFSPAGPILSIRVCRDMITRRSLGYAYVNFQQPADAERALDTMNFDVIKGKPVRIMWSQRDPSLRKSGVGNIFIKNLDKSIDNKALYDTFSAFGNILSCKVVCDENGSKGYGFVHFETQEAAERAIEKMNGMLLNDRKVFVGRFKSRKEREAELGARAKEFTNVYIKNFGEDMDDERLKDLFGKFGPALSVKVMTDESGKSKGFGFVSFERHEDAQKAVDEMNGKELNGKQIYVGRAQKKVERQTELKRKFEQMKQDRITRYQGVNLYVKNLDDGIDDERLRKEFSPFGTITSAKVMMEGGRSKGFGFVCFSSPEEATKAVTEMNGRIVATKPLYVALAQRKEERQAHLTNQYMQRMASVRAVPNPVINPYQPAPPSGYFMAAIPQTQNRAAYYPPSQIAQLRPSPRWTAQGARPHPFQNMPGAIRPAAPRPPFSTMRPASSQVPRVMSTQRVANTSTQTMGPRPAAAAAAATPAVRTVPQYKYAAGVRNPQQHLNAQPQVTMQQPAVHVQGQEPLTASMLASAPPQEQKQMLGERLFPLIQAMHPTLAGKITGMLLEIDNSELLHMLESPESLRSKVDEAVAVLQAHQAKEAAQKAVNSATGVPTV
Chain of Cytochrome P450 2D6 (P10635 whole entry): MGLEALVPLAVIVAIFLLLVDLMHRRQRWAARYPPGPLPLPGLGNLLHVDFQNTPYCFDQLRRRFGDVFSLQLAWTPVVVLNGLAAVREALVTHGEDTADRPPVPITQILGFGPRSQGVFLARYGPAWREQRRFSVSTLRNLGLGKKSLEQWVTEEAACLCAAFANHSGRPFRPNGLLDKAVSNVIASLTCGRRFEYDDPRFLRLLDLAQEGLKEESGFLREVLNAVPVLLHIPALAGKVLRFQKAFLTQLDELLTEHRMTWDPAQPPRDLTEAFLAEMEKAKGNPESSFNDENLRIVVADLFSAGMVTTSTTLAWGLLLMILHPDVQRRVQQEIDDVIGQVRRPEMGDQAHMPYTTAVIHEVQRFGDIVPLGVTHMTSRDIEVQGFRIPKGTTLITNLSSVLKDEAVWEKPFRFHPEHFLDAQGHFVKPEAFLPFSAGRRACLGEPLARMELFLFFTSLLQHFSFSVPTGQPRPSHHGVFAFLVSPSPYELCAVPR
Chain of Cytochrome P450 2C9 (P11712 whole entry): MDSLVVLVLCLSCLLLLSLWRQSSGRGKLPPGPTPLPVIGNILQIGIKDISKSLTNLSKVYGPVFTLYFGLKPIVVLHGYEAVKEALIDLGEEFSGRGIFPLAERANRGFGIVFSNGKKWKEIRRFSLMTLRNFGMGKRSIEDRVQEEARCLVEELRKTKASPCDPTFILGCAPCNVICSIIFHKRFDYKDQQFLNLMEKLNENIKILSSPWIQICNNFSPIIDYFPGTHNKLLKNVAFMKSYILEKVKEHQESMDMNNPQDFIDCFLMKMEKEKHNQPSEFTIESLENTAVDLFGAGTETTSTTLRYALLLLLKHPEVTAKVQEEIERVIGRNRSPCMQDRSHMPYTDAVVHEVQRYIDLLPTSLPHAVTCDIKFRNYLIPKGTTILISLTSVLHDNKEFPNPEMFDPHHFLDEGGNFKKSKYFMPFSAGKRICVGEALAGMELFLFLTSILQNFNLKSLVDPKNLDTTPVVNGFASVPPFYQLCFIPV

IC50 (Bcl-2-related protein A1): > 20 µM (inactive) | IC50 [1]: 12.2 µM (active) | IC50 [2]: 8.9 µM (active)
SMILES: CCC(=O)NC(=S)NNC(=O)c1ccc(O)cc1

SMILES: COc1ccc(OC)c(/C=C/C(=O)N2C(=O)c3cccc(N)c3C2=O)c1
IC50 [3]: > 66 µM (inactive) | AC50 [4]: 3.25 µM (active) | IC50 [5]: > 66 µM (inactive) | AC50 [6]: 58.5 µM (active) | AC50 [7]: 26.6 µM (active) | EC50 (HEK293 [8]): > 59.7 µM (inactive) | EC50 (HEK293 [9]): > 59.7 µM (inactive)

SMILES: Cc1ccc(NP(=O)(c2ccccc2)c2nc3ccccc3s2)cc1 (centres undefined)
IC50 [10]: > 50 µM (inactive) | IC50 (Phosphomannomutase 2): > 100 µM (inactive)

AC50 (Cytochrome P450 2D6): 14.1 µM (inconclusive) | AC50 (Cytochrome P450 1A2): 2 µM (inconclusive) | AC50 (Cytochrome P450 2C9): inconclusive
SMILES: CC(C)NC(=O)C1CC(=O)N(c2ccc(F)c(Cl)c2)C1 (centres undefined)

SMILES: COc1cc(NC(=O)c2[nH]cnc2C(N)=O)cc(C(=O)Nc2cccc(C(F)(F)F)c2)c1
AC50 [11]: 10.9 µM (active) | AC50 (INS1): 3.48 µM (active) | AC50 (A-375): 17 µM (active) | AC50 [12]: 6.34 µM (active)
